The numbers were not newly measured in patent publication US20260207703A1 (priority 2023, published 2026), which cites them from elsewhere.

Broadly, the half-life is how long it takes for the measured level to halve.

Molecules are shown by their SMILES.

For the data set the following is noted: in vivo.

Turning to `C=CCN1CC[C@]23c4c5ccc(O)c4O[C@H]2C(=O)CC[C@@]3(O)[C@H]1C5` [Naloxone], the half-life is reported as ~ 1 hr. Regarding `C=C1CC[C@@]2(O)[C@H]3Cc4ccc(O)c5c4[C@@]2(CCN3CC2CC2)[C@H]1O5` [nalmefene, 17-cyclopropylmethyl-4,5α-epoxy-6-methylenemorphinan-3,14-diol], the half-life was 8 to 11 h.
